From ChEMBL document CHEMBL1255413, “Proteus mirabilis pmrI, an RppA-regulated gene necessary for polymyxin B resistance, biofilm formation, and urothelial cell invasion” (2010) come the findings set out here.

In brackets after ≈: the same amount, converted by molar mass.

In the first assay the test system is Proteus mirabilis. In words: Antimicrobial activity against PpmrI knockout mutant Proteus mirabilis dIpc complemented with PPmrI gene after 16 to 18 hrs by broth microdilution method. In kind it is functional.
The MIC is the lowest concentration that inhibits growth of the organism. Read a low MIC as a more susceptible organism. In turn, `CC1(C)S[C@@H]2[C@H](NC(=O)[C@H](N)c3ccccc3)C(=O)N2[C@H]1C(=O)O` [AMPICILLIN] gave an MIC of 16 µg/mL (≈ 45.8 µM).

As for `C[C@@H](O)[C@H]1C(=O)N2C(C(=O)O)=C(SCCNC=N)C[C@H]12` [IMIPENEM ANHYDROUS], the MIC is 2 µg/mL (≈ 6.68 µM).

`CN(C)[C@@H]1C(O)=C(C(N)=O)C(=O)[C@@]2(O)C(O)=C3C(=O)c4c(O)cccc4[C@@](C)(O)[C@H]3C[C@@H]12` [TETRACYCLINE] had an MIC of 32 µg/mL (≈ 72 µM).

GENTAMICIN returned an MIC of 4 µg/mL.

The next assay deals with Proteus mirabilis. In words: Antimicrobial activity against PpmrI knockout mutant Proteus mirabilis dIp after 16 to 18 hrs by broth microdilution method. In kind it is functional.
`CC1(C)S[C@@H]2[C@H](NC(=O)[C@H](N)c3ccccc3)C(=O)N2[C@H]1C(=O)O` [AMPICILLIN] came in with an MIC of 16 µg/mL (≈ 45.8 µM).

`C[C@@H](O)[C@H]1C(=O)N2C(C(=O)O)=C(SCCNC=N)C[C@H]12` [IMIPENEM ANHYDROUS] returned an MIC of 0.25 µg/mL (≈ 0.835 µM).

With `CN(C)[C@@H]1C(O)=C(C(N)=O)C(=O)[C@@]2(O)C(O)=C3C(=O)c4c(O)cccc4[C@@](C)(O)[C@H]3C[C@@H]12` [TETRACYCLINE], the minimum inhibitory concentration (MIC) was 32 µg/mL (≈ 72 µM).

GENTAMICIN yielded a minimal inhibitory concentration (MIC) of 4 µg/mL.

In turn, POLYMYXIN B gave an MIC of 4 µg/mL.

The next assay concerns Proteus mirabilis. In words: Antimicrobial activity against Proteus mirabilis I2 mutant after 16 to 18 hrs by broth microdilution method. In kind it is functional, organism-based. For orientation: Dilution methods test growth across graded concentrations, often in twofold steps.
POLYMYXIN B registered an MIC of 4 µg/mL.

The subject of the next assay is Proteus mirabilis. Nature of the assay: Antimicrobial activity against wild type Proteus mirabilis N2 […] after 16 to 18 hrs by broth microdilution method. In kind it is functional.
As for `CC1(C)S[C@@H]2[C@H](NC(=O)[C@H](N)c3ccccc3)C(=O)N2[C@H]1C(=O)O` [AMPICILLIN], inhibition of growth (MIC) required 16 µg/mL (≈ 45.8 µM).

As to `C[C@@H](O)[C@H]1C(=O)N2C(C(=O)O)=C(SCCNC=N)C[C@H]12` [IMIPENEM ANHYDROUS], the MIC was 2 µg/mL (≈ 6.68 µM).

As to `CN(C)[C@@H]1C(O)=C(C(N)=O)C(=O)[C@@]2(O)C(O)=C3C(=O)c4c(O)cccc4[C@@](C)(O)[C@H]3C[C@@H]12` [TETRACYCLINE], the MIC was 32 µg/mL (≈ 72 µM).

GENTAMICIN displayed an MIC of 4 µg/mL.
